Details: human gut metagenome, 24 h, 2 µM
Further: call rule not given here.

| Structure (SMILES) | Bacterial Biotransformation |
| --- | --- |
| CCCC(=O)Nc1ccc(OCC(O)CNC(C)C)c(C(C)=O)c1 (stereo not given) [ACEBUTOLOL] | Compound NOT metabolized |
| NS(=O)(=O)c1cc2c(cc1Cl)N=C(CSCc1ccccc1)NS2(=O)=O [BENZTHIAZIDE] | Compound NOT metabolized |
| CN1CCN(C(=O)O[C@H]2c3nccnc3C(=O)N2c2ccc(Cl)cn2)CC1 [ESZOPICLONE] | Compound NOT metabolized |

Details: human gut metagenome, 24 h, 2 µM
Remark: another data set of the same source

| Structure (SMILES) | Bacterial Biotransformation |
| --- | --- |
| CCCC(=O)Nc1ccc(OCC(O)CNC(C)C)c(C(C)=O)c1 (stereo not given) [ACEBUTOLOL] | Compound metabolized |
| NS(=O)(=O)c1cc2c(cc1Cl)N=C(CSCc1ccccc1)NS2(=O)=O [BENZTHIAZIDE] | Compound NOT metabolized |
| CN1CCN(C(=O)O[C@H]2c3nccnc3C(=O)N2c2ccc(Cl)cn2)CC1 [ESZOPICLONE] | Compound NOT metabolized |

Test: (§1) The drug is tested on Z-006 corresponding to mouse gut metagenome with ENA study accession number: PRJEB37062 and ENA sample accession number: ERS12561806 for biotransformation under anaerobic condition. The drug concentrations were measured over 9 timepoints collected between 0 and 24 hours of incubation by liquid-chromatography-coupled mass spectrometry (LC–MS)
Details: 2 µM

| Structure (SMILES) | Bacterial Biotransformation |
| --- | --- |
| CCCC(=O)Nc1ccc(OCC(O)CNC(C)C)c(C(C)=O)c1 (stereo not given) [ACEBUTOLOL] | Compound NOT metabolized |
| NS(=O)(=O)c1cc2c(cc1Cl)N=C(CSCc1ccccc1)NS2(=O)=O [BENZTHIAZIDE] | Compound NOT metabolized |
| CN1CCN(C(=O)O[C@H]2c3nccnc3C(=O)N2c2ccc(Cl)cn2)CC1 [ESZOPICLONE] | Compound NOT metabolized |

Test: as §1, with “WLS-350” for “Z-006”, “human” for “mouse”, “ERS12561789” for “ERS12561806”
Details: 2 µM

| Structure (SMILES) | Bacterial Biotransformation |
| --- | --- |
| CCCC(=O)Nc1ccc(OCC(O)CNC(C)C)c(C(C)=O)c1 (stereo not given) [ACEBUTOLOL] | Compound metabolized |
| NS(=O)(=O)c1cc2c(cc1Cl)N=C(CSCc1ccccc1)NS2(=O)=O [BENZTHIAZIDE] | Compound NOT metabolized |
| CN1CCN(C(=O)O[C@H]2c3nccnc3C(=O)N2c2ccc(Cl)cn2)CC1 [ESZOPICLONE] | Compound NOT metabolized |

Test: as §1, with “Z-005” for “Z-006”, “to” for “to mouse gut”, “ERS12561805” for “ERS12561806”
Details: 2 µM

| Structure (SMILES) | Bacterial Biotransformation |
| --- | --- |
| CCCC(=O)Nc1ccc(OCC(O)CNC(C)C)c(C(C)=O)c1 (stereo not given) [ACEBUTOLOL] | Compound NOT metabolized |
| NS(=O)(=O)c1cc2c(cc1Cl)N=C(CSCc1ccccc1)NS2(=O)=O [BENZTHIAZIDE] | Compound NOT metabolized |
| CN1CCN(C(=O)O[C@H]2c3nccnc3C(=O)N2c2ccc(Cl)cn2)CC1 [ESZOPICLONE] | Compound NOT metabolized |

Test: as §1, with “WLS-069” for “Z-006”, “human” for “mouse”, “ERS12561748” for “ERS12561806”
Details: 2 µM

| Structure (SMILES) | Bacterial Biotransformation |
| --- | --- |
| CCCC(=O)Nc1ccc(OCC(O)CNC(C)C)c(C(C)=O)c1 (stereo not given) [ACEBUTOLOL] | Compound metabolized |
| NS(=O)(=O)c1cc2c(cc1Cl)N=C(CSCc1ccccc1)NS2(=O)=O [BENZTHIAZIDE] | Compound NOT metabolized |
| CN1CCN(C(=O)O[C@H]2c3nccnc3C(=O)N2c2ccc(Cl)cn2)CC1 [ESZOPICLONE] | Compound NOT metabolized |

Test: as §1, with “Z-004” for “Z-006”, “to” for “to mouse gut”, “ERS12561804” for “ERS12561806”
Details: 2 µM

| Structure (SMILES) | Bacterial Biotransformation |
| --- | --- |
| CCCC(=O)Nc1ccc(OCC(O)CNC(C)C)c(C(C)=O)c1 (stereo not given) [ACEBUTOLOL] | Compound NOT metabolized |
| NS(=O)(=O)c1cc2c(cc1Cl)N=C(CSCc1ccccc1)NS2(=O)=O [BENZTHIAZIDE] | Compound NOT metabolized |
| CN1CCN(C(=O)O[C@H]2c3nccnc3C(=O)N2c2ccc(Cl)cn2)CC1 [ESZOPICLONE] | Compound NOT metabolized |

Details: human gut metagenome, 24 h, 2 µM
Remark: another data set of the same source

| Structure (SMILES) | Bacterial Biotransformation |
| --- | --- |
| CCCC(=O)Nc1ccc(OCC(O)CNC(C)C)c(C(C)=O)c1 (stereo not given) [ACEBUTOLOL] | Compound metabolized |
| NS(=O)(=O)c1cc2c(cc1Cl)N=C(CSCc1ccccc1)NS2(=O)=O [BENZTHIAZIDE] | Compound NOT metabolized |
| CN1CCN(C(=O)O[C@H]2c3nccnc3C(=O)N2c2ccc(Cl)cn2)CC1 [ESZOPICLONE] | Compound NOT metabolized |

Test: as §1, with “Z-017” for “Z-006”, “ERS12561816” for “ERS12561806”
Details: 2 µM

| Structure (SMILES) | Bacterial Biotransformation |
| --- | --- |
| CCCC(=O)Nc1ccc(OCC(O)CNC(C)C)c(C(C)=O)c1 (stereo not given) [ACEBUTOLOL] | Compound NOT metabolized |
| NS(=O)(=O)c1cc2c(cc1Cl)N=C(CSCc1ccccc1)NS2(=O)=O [BENZTHIAZIDE] | Compound NOT metabolized |
| CN1CCN(C(=O)O[C@H]2c3nccnc3C(=O)N2c2ccc(Cl)cn2)CC1 [ESZOPICLONE] | Compound NOT metabolized |

Test: as §1, with “WLS-052” for “Z-006”, “human” for “mouse”, “ERS12561747” for “ERS12561806”
Details: 2 µM

| Structure (SMILES) | Bacterial Biotransformation |
| --- | --- |
| CCCC(=O)Nc1ccc(OCC(O)CNC(C)C)c(C(C)=O)c1 (stereo not given) [ACEBUTOLOL] | Compound NOT metabolized |
| NS(=O)(=O)c1cc2c(cc1Cl)N=C(CSCc1ccccc1)NS2(=O)=O [BENZTHIAZIDE] | Compound NOT metabolized |
| CN1CCN(C(=O)O[C@H]2c3nccnc3C(=O)N2c2ccc(Cl)cn2)CC1 [ESZOPICLONE] | Compound NOT metabolized |

Test: as §1, with “Z-022” for “Z-006”, “ERS12561821” for “ERS12561806”
Details: 2 µM

| Structure (SMILES) | Bacterial Biotransformation |
| --- | --- |
| CCCC(=O)Nc1ccc(OCC(O)CNC(C)C)c(C(C)=O)c1 (stereo not given) [ACEBUTOLOL] | Compound metabolized |
| NS(=O)(=O)c1cc2c(cc1Cl)N=C(CSCc1ccccc1)NS2(=O)=O [BENZTHIAZIDE] | Compound NOT metabolized |
| CN1CCN(C(=O)O[C@H]2c3nccnc3C(=O)N2c2ccc(Cl)cn2)CC1 [ESZOPICLONE] | Compound NOT metabolized |

Test: as §1, with “WLS-220” for “Z-006”, “human” for “mouse”, “ERS12561769” for “ERS12561806”
Details: 2 µM

| Structure (SMILES) | Bacterial Biotransformation |
| --- | --- |
| CCCC(=O)Nc1ccc(OCC(O)CNC(C)C)c(C(C)=O)c1 (stereo not given) [ACEBUTOLOL] | Compound NOT metabolized |
| NS(=O)(=O)c1cc2c(cc1Cl)N=C(CSCc1ccccc1)NS2(=O)=O [BENZTHIAZIDE] | Compound NOT metabolized |
| CN1CCN(C(=O)O[C@H]2c3nccnc3C(=O)N2c2ccc(Cl)cn2)CC1 [ESZOPICLONE] | Compound NOT metabolized |

Details: human gut metagenome, 24 h, 2 µM
Remark: another data set of the same source

| Structure (SMILES) | Bacterial Biotransformation |
| --- | --- |
| CCCC(=O)Nc1ccc(OCC(O)CNC(C)C)c(C(C)=O)c1 (stereo not given) [ACEBUTOLOL] | Compound metabolized |
| NS(=O)(=O)c1cc2c(cc1Cl)N=C(CSCc1ccccc1)NS2(=O)=O [BENZTHIAZIDE] | Compound NOT metabolized |
| CN1CCN(C(=O)O[C@H]2c3nccnc3C(=O)N2c2ccc(Cl)cn2)CC1 [ESZOPICLONE] | Compound NOT metabolized |

Test: as §1, with “Z-029” for “Z-006”, “rat” for “mouse”, “ERS12561828” for “ERS12561806”
Details: 2 µM

| Structure (SMILES) | Bacterial Biotransformation |
| --- | --- |
| CCCC(=O)Nc1ccc(OCC(O)CNC(C)C)c(C(C)=O)c1 (stereo not given) [ACEBUTOLOL] | Compound NOT metabolized |
| NS(=O)(=O)c1cc2c(cc1Cl)N=C(CSCc1ccccc1)NS2(=O)=O [BENZTHIAZIDE] | Compound NOT metabolized |
| CN1CCN(C(=O)O[C@H]2c3nccnc3C(=O)N2c2ccc(Cl)cn2)CC1 [ESZOPICLONE] | Compound NOT metabolized |

Details: human gut metagenome, 24 h, 2 µM
Remark: another data set of the same source

| Structure (SMILES) | Bacterial Biotransformation |
| --- | --- |
| CCCC(=O)Nc1ccc(OCC(O)CNC(C)C)c(C(C)=O)c1 (stereo not given) [ACEBUTOLOL] | Compound NOT metabolized |
| NS(=O)(=O)c1cc2c(cc1Cl)N=C(CSCc1ccccc1)NS2(=O)=O [BENZTHIAZIDE] | Compound NOT metabolized |
| CN1CCN(C(=O)O[C@H]2c3nccnc3C(=O)N2c2ccc(Cl)cn2)CC1 [ESZOPICLONE] | Compound NOT metabolized |

Details: human gut metagenome, 24 h, 2 µM
Remark: another data set of the same source

| Structure (SMILES) | Bacterial Biotransformation |
| --- | --- |
| CCCC(=O)Nc1ccc(OCC(O)CNC(C)C)c(C(C)=O)c1 (stereo not given) [ACEBUTOLOL] | Compound metabolized |
| NS(=O)(=O)c1cc2c(cc1Cl)N=C(CSCc1ccccc1)NS2(=O)=O [BENZTHIAZIDE] | Compound NOT metabolized |
| CN1CCN(C(=O)O[C@H]2c3nccnc3C(=O)N2c2ccc(Cl)cn2)CC1 [ESZOPICLONE] | Compound NOT metabolized |

Details: human gut metagenome, 24 h, 2 µM
Remark: another data set of the same source

| Structure (SMILES) | Bacterial Biotransformation |
| --- | --- |
| CCCC(=O)Nc1ccc(OCC(O)CNC(C)C)c(C(C)=O)c1 (stereo not given) [ACEBUTOLOL] | Compound metabolized |
| NS(=O)(=O)c1cc2c(cc1Cl)N=C(CSCc1ccccc1)NS2(=O)=O [BENZTHIAZIDE] | Compound NOT metabolized |
| CN1CCN(C(=O)O[C@H]2c3nccnc3C(=O)N2c2ccc(Cl)cn2)CC1 [ESZOPICLONE] | Compound NOT metabolized |

Details: human gut metagenome, 24 h, 2 µM
Remark: another data set of the same source

| Structure (SMILES) | Bacterial Biotransformation |
| --- | --- |
| CCCC(=O)Nc1ccc(OCC(O)CNC(C)C)c(C(C)=O)c1 (stereo not given) [ACEBUTOLOL] | Compound metabolized |
| NS(=O)(=O)c1cc2c(cc1Cl)N=C(CSCc1ccccc1)NS2(=O)=O [BENZTHIAZIDE] | Compound NOT metabolized |
| CN1CCN(C(=O)O[C@H]2c3nccnc3C(=O)N2c2ccc(Cl)cn2)CC1 [ESZOPICLONE] | Compound NOT metabolized |

Details: human gut metagenome, 24 h, 2 µM
Remark: another data set of the same source

| Structure (SMILES) | Bacterial Biotransformation |
| --- | --- |
| CCCC(=O)Nc1ccc(OCC(O)CNC(C)C)c(C(C)=O)c1 (stereo not given) [ACEBUTOLOL] | Compound metabolized |
| NS(=O)(=O)c1cc2c(cc1Cl)N=C(CSCc1ccccc1)NS2(=O)=O [BENZTHIAZIDE] | Compound NOT metabolized |
| CN1CCN(C(=O)O[C@H]2c3nccnc3C(=O)N2c2ccc(Cl)cn2)CC1 [ESZOPICLONE] | Compound NOT metabolized |

Details: human gut metagenome, 24 h, 2 µM
Remark: another data set of the same source

| Structure (SMILES) | Bacterial Biotransformation |
| --- | --- |
| CCCC(=O)Nc1ccc(OCC(O)CNC(C)C)c(C(C)=O)c1 (stereo not given) [ACEBUTOLOL] | Compound NOT metabolized |
| NS(=O)(=O)c1cc2c(cc1Cl)N=C(CSCc1ccccc1)NS2(=O)=O [BENZTHIAZIDE] | Compound NOT metabolized |
| CN1CCN(C(=O)O[C@H]2c3nccnc3C(=O)N2c2ccc(Cl)cn2)CC1 [ESZOPICLONE] | Compound NOT metabolized |
